Reference: PMC9228412, “Synthesis and Activity of Triazole-Adenosine Analogs as Protein Arginine Methyltransferase 5 Inhibitors” (Molecules, 2022)
Like-named read-outs stand apart in the source and are kept apart here.

Tests used:
PRMT5 [1] = conditions: cited from earlier work
PRMT5 [2] = target: T1, PRMT5 (Homo sapiens, UniProt O14744); assay: scintillation proximity assay (SPA) of PRMT5 methyltransferase activity; type: biochemical; conditions: for remaining activity at 10 µM: 0.5 h, remaining activity of the enzyme, single point SPA test, inhibitor 10 μM, read-out: Relative Activity of PRMT5 at 10 μM
T1 construct: His-tag; made in house; host or cells: Sf9 insect cells (Bac-to-Bac baculovirus)
T1 sequence (O14744 whole entry): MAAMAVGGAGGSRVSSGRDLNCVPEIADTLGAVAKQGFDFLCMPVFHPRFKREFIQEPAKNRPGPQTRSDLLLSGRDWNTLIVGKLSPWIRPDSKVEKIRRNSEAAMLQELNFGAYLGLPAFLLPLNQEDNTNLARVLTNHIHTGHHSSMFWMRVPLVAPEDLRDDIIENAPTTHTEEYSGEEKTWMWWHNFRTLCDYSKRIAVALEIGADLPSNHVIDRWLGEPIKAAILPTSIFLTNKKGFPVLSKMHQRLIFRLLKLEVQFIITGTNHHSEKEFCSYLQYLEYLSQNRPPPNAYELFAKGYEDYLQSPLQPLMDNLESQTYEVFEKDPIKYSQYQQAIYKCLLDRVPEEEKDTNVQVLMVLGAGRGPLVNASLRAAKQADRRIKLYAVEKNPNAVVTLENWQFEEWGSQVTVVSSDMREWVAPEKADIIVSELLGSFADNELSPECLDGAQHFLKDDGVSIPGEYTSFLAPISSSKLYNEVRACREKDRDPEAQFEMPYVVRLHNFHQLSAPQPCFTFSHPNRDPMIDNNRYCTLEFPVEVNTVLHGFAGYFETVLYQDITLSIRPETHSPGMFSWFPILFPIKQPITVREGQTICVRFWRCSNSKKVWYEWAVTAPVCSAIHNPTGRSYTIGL
T1 sequence (Q9BQA1 whole entry partner): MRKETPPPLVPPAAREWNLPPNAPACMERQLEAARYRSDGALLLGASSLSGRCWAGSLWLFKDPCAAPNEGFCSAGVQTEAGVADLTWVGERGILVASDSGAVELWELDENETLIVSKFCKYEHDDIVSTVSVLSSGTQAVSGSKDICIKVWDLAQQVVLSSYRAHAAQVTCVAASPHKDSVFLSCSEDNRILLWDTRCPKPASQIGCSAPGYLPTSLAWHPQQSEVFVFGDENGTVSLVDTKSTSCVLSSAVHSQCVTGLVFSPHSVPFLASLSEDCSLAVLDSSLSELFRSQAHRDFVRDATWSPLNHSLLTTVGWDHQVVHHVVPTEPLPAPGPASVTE
Method: (§1) The methyltransferase activities of PRMT5 and PRMT1 in the absence and presence of the synthetic inhibitors were measured by using the scintillation proximity assay (SPA) protocol (Table 1). In the initial test, the inhibitor concentration was set at 10 μM. H4(1–20)K20biotin [Ac-[…](biotin)-NH2] was used as the peptide substrate, at a final concentration of 0.5 μM. ^3H-SAM was used as the methyl donor at 0.5 μM. SAH was used as a control inhibitor. […] Analysis of the biochemical activity results against PRMT5 disclosed a few interesting structure–activity relationship (SAR) trends. […] If the hydroxyl group of 3 was changed to an amine (6), the potency was improved; however, the selectivity was abolished. Generally, compounds that contained positive charges (6, 20, 21, 22, 24) near the triazole ring had further improved potencies.
Human recombinant His-tag PRMT5 was co-expressed with His-tag MEP50 using the Bac-to-Bac baculovirus expression system (Invitrogen, Life Technologies, Carlsbad, CA, USA) as previously described. Briefly, pFB-LIC-Bse-PRMT5 and pFB-LIC-Bse-MEP50 were heat shock transformed in the DH10Bac E. coli to obtain the recombinant bacmids, and the bacmids were extracted using the PureLink HiPure Plasmid Miniprep Kit (Invitrogen, Thermo Scientific, Carlsbad, CA, USA). The purity and concentration of the plasmid were measured by a Nanodrop. Sf9 cells were cultured in Sf-900 II SFM medium until the cell density reached 1.5 × 10^6 cells/mL and cell viability was more than 95%. Cells were plated in a 6-well tissue culture plate at a density of 4 × 10^5 cells/mL per well. In total, 2 µg of PRMT5 and MEP50 recombinant bacmid were transfected into each well of cells. After 5 h of transfection, the transfection medium was replaced by 2 mL of Sf-900 II SFM + 100 U P/S per well. The medium was collected and centrifuged at 1000 rpm for 5 min to obtain the supernatant P1 viral stock after 7 days of inoculation at 27.5 °C. To obtain a higher titer of viral stock, P1 viral stock was amplified in a 6-well tissue culture plate containing 2 × 10^6 cells per well. In total, 0.1 MOI of P1 virus stock was added into each well. After 7 days of incubation at 27.5 °C, the cell medium was centrifuged at 1000 rpm for 5 min to obtain the P2 viral stock in the supernatant. The Baculovirus plaque assay was performed to determine the viral titer concentration; the target concentration range was 1 × 10^7–1 × 10^8 IFU/mL.
For the expression of PRMT5 and MEP50, Sf9 insect cells were cultured in suspension at 27.5 °C at a speed of 130 rpm in Expression Systems ESF 921 medium with 100 U P/S. In total, 200 mL of Sf9 cell culture was inoculated with PRMT5 and MEP50 P2 viral stocks when the cell density reached 1.5 × 10^6 cells/mL. After incubation for 72 h at 27.5 °C, the cells were harvested and centrifuged. PRMT5 and MEP50 protein were collected in the cell pellet for further purification. Cell pellets were disrupted twice at 100 psi in 25 mL of cell lysis buffer (50 mM Tris pH 8, 300 mM NaCl, 10% glycerol, 0.1% Triton X-100, 1 mM PMSF). Before the Ni-NTA purification, 10 mL of Ni-NTA resin (EMD Millipore, Burlington, MA, USA) was loaded into a 50 mL column and equilibrated with equilibration buffer (50 mM Tris pH 8, 250 mM NaCl, 30 mM Imidazole, 10% glycerol, 1 mM TCEP, 1 mM PMSF). After 60 min of cell lysate centrifugation at 4 °C at 18,000 rpm, the cell lysate supernatant was incubated with the equilibrated nickel resin. The resin was washed with equilibration buffer and protein was eluted with elution buffer (50 mM Tris pH 8, 250 mM NaCl, 300 mM Imidazole, 10% glycerol, 1 mM TCEP, 1 mM PMSF). For the dialysis of protein, elution samples were loaded into a 10,000 MWCO SnakeSkin (Thermo Scientific, Waltham, MA, USA) dialysis bag in the storage buffer (50 mM Tris pH 8, 250 mM NaCl, 10% glycerol, 1 mM TCEP). […]

PRMT1 = PRMT1 (Homo sapiens, UniProt Q99873); assay: scintillation proximity assay (SPA) of PRMT1 methyltransferase activity; type: biochemical; conditions: for remaining activity at 10 µM: 0.5 h, remaining activity of the enzyme, single point SPA test, inhibitor 10 μM, read-out: Relative Activity of PRMT1 at 10 μM
Sequence of PRMT1 (Q99873 whole entry, species assumed): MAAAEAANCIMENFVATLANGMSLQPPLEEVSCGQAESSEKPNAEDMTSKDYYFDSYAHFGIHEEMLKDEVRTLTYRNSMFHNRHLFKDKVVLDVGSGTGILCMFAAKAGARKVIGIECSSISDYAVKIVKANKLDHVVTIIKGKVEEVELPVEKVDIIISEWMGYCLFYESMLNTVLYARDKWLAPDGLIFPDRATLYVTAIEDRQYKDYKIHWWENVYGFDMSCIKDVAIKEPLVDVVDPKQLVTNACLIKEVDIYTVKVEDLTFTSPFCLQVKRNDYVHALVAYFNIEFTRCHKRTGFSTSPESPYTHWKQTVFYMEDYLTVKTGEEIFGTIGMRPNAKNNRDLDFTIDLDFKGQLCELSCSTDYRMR
Method: as §1
Inhibitor was dissolved in water to create a 10 mM stock concentration. This was then diluted in buffer (50 mM HEPES pH 8, 10 mM NaCl, 0.5 mM EDTA, 0.5 mM DTT in H2O) to create a series of working concentrations centered around an anticipated IC50. [H]^3-SAM and substrate were diluted together in buffer to working concentrations of […], respectively. To each well in a 96-well plate, 6 μL of the inhibitor solution was added, with negative and positive controls receiving buffer. In total, 6 μL of the [H]^3-SAM/substrate solution was then added to each well. The enzyme was then diluted in buffer to a working concentration of 0.83 μM, and 18 μL was added to each well, with negative controls receiving 18 μL of buffer. The plate was covered, and the reaction was allowed to run for 30 min and was then quenched with the addition of 30 μL of 100% iPrOH followed by 60 μL of 50% iPrOH in H2O. In total, 10 μL of 20 mg/mL streptavidin-coated scintillant beads were added and the plate was read using a MicroBeta (Perkin Elmer, Waltham, MA, USA) plate reader. The CPM counts in the absence of an inhibitor for each data set were considered as 100% activity. In the absence of the enzyme and inhibitor, the CPM counts in each data set were defined as background (0%).

[3] = 0.5 μM H4(1–20)K20biotin, 0.5 μM 3H-SAM
[4] = SPA, concentration-dependent, 0.5 μM H4(1–20)K20biotin, 0.5 μM 3H-SAM, read-out: IC50 PRMT5 (converted)
[5] = SPA, concentration-dependent, read-out: IC50 PRMT1 (converted)

| remaining activity at 10 µM (PRMT5 [2]; [3]) [%] | IC50 (PRMT5 [2]; [4]) [µM] | remaining activity at 10 µM (PRMT1) [%] | SMILES | further results |
| --- | --- | --- | --- | --- |
| – | – | – | CCn1c2ccccc2c2cc(CNCc3ccccn3)ccc21 [CMP5] | potency (PRMT5 [1]): 50 µM |
| 57 ± 4.4 | > 40 | 92.7 ± 10 | Nc1ncnc2c1ncn2[C@@H]1O[C@H](Cn2cc(CCCCC(=O)O)nn2)[C@@H](O)[C@H]1O [Compound 13, 5-(1-(((2R,3S,4R,5R)-5-(6-amino-9H-purin-9-yl)-3,4-dihydroxytetrahydrofuran-2-yl)methyl)-1H-1,2,3-triazol-4-yl)pentanoic acid] | – |
| 51 ± 5.7 | 2.6 | 90.1 ± 5.7 | Nc1ncnc2c1ncn2[C@@H]1O[C@H](Cn2cc(-c3ccccc3)nn2)[C@@H](O)[C@H]1O [Compound 14, (2R,3R,4S,5R)-2-(6-amino-9H-purin-9-yl)-5-((4-phenyl-1H-1,2,3-triazol-1-yl)methyl)tetrahydrofuran-3,4-diol] | – |
| 94.2 ± 12 | > 40 | 123 ± 4.4 | Nc1ncnc2c1ncn2[C@@H]1O[C@H](Cn2cc(CNC(=O)c3ccccc3)nn2)[C@@H](O)[C@H]1O [Compound 15, N-((1-(((2R,3S,4R,5R)-5-(6-amino-9H-purin-9-yl)-3,4-dihydroxytetrahydrofuran-2-yl)methyl)-1H-1,2,3-triazol-4-yl)methyl)benzamide] | – |
| 80 ± 9.5 | – | 101 ± 10 | Nc1ncnc2c1ncn2[C@@H]1O[C@H](Cn2cc(CNC(=O)OCc3ccccc3)nn2)[C@@H](O)[C@H]1O [Compound 16] | – |
| 56 ± 10 | – | 91 ± 11 | CCC(=O)Oc1ccc(CCc2cn(C[C@H]3O[C@@H](n4cnc5c(N)ncnc54)[C@H](O)[C@@H]3O)nn2)cc1OC(=O)C(C)C [Compound 17] | – |
| 56 ± 6.4 | – | 91.2 ± 4.7 | Nc1ncnc2c1ncn2[C@@H]1O[C@H](Cn2cc(C[C@H](NC(=O)OCC3c4ccccc4-c4ccccc43)C(=O)O)nn2)[C@@H](O)[C@H]1O [Compound 18, (S)-2-((((9H-fluoren-9-yl)methoxy)carbonyl)amino)-3-(1-(((2R,3S,4R,5R)-5-(6-amino-9H-purin-9-yl)-3,4-dihydroxytetrahydrofuran-2-yl)methyl)-1H-1,2,3-triazol-4-yl)propanoic acid] | – |
| – | 18.9 | – | Nc1ncnc2c1ncn2[C@@H]1O[C@H](Cn2cc(C[C@H](N)C(=O)O)nn2)[C@@H](O)[C@H]1O [Compound 19, (S)-2-amino-3-(1-(((2R,3S,4R,5R)-5-(6-amino-9H-purin-9-yl)-3,4-dihydroxytetrahydrofuran-2-yl)methyl)-1H-1,2,3-triazol-4-yl)propanoic acid] | IC50 (PRMT1; [5]): > 200 µM |
| 26 ± 0.45 | 0.88 | 111 ± 5.5 | CC(C)[C@H](N)C(=O)OCc1cn(C[C@H]2O[C@@H](n3cnc4c(N)ncnc43)[C@H](O)[C@@H]2O)nn1 [Compound 20, (1-(((2R,3S,4R,5R)-5-(6-amino-9H-purin-9-yl)-3,4-dihydroxytetrahydrofuran-2-yl)methyl)-1H-1,2,3-triazol-4-yl)methyl L-valinate] | selectivity for PRMT5 over PRMT1 (PRMT5 [2]; ratio of IC50 values): approximately 49 fold; IC50 (PRMT1; [5]): 43.5 µM |
| 32 ± 3.3 | – | 84 ± 55 | Cc1cccc(NC(=O)CNCc2cn(C[C@H]3O[C@@H](n4cnc5c(N)ncnc54)[C@H](O)[C@@H]3O)nn2)c1 [Compound 21, 2-(((1-(((2R,3S,4R,5R)-5-(6-amino-9H-purin-9-yl)-3,4-dihydroxytetrahydrofuran-2-yl)methyl)-1H-1,2,3-triazol-4-yl)methyl)amino)-N-(m-tolyl)acetamide] | – |
| 30 ± 1.7 | 1.3 | 94.2 ± 2.2 | COC(=O)c1ccc(CNCc2cn(C[C@H]3O[C@@H](n4cnc5c(N)ncnc54)[C@H](O)[C@@H]3O)nn2)cc1 [Compound 22, Methyl 4-((((1-(((2R,3S,4R,5R)-5-(6-amino-9H-purin-9-yl)-3,4-dihydroxytetrahydrofuran-2-yl)methyl)-1H-1,2,3-triazol-4-yl)methyl)amino)methyl)benzoate] | IC50 (PRMT1; [5]): 130 µM |
| 70 ± 5.6 | – | 91.8 ± 16 | Nc1ncnc2c1ncn2[C@@H]1O[C@H](Cn2cc(CNC(=O)Nc3ccc(Cl)cc3)nn2)[C@@H](O)[C@H]1O [Compound 23] | – |
| 40 ± 3.6 | 13.2 | 93 ± 1.3 | Nc1ncnc2c1ncn2[C@@H]1O[C@H](Cn2cc(CNCC(=O)Nc3ccccc3F)nn2)[C@@H](O)[C@H]1O [Compound 24, 2-(((1-(((2R,3S,4R,5R)-5-(6-amino-9H-purin-9-yl)-3,4-dihydroxytetrahydrofuran-2-yl)methyl)-1H-1,2,3-triazol-4-yl)methyl)amino)-N-(2-fluorophenyl)acetamide] | – |
| 72 ± 9.6 | – | 99.1 ± 13 | CC(C)(C)OC(=O)NCC(=O)NCc1cn(C[C@H]2O[C@@H](n3cnc4c(N)ncnc43)[C@H](O)[C@@H]2O)nn1 [Compound 25] | – |
| 83 ± 2.5 | – | 100 ± 4.6 | Nc1cc2c(cc1F)OCC(=O)N2Cc1cn(C[C@H]2O[C@@H](n3cnc4c(N)ncnc43)[C@H](O)[C@@H]2O)nn1 [Compound 26] | – |
| 76 ± 11 | – | 77 ± 23 | CC(C)(C)OC(=O)NCCS(=O)(=O)Cc1cn(C[C@H]2O[C@@H](n3cnc4c(N)ncnc43)[C@H](O)[C@@H]2O)nn1 [Compound 28] | – |
| – | – | – | CC(=O)N[C@@H](CCCNC(=N)N)C(=O)N[C@@H](CCCNC(=N)N)C(=O)N[C@@H](Cc1cn(C[C@H]2O[C@@H](n3cnc4c(N)ncnc43)[C@H](O)[C@@H]2O)nn1)C(=O)N[C@@H](CCCNC(=N)N)C(=O)N[C@@H](CCCNC(=N)N)C(N)=O [Compound 29] | IC50 (PRMT5 [2]): 53.7 µM; IC50 (PRMT1): > 400 µM |
| – | – | – | CC(=O)N[C@@H](CO)C(=O)NCC(=O)N[C@@H](Cc1cn(C[C@H]2O[C@@H](n3cnc4c(N)ncnc43)[C@H](O)[C@@H]2O)nn1)C(=O)NCC(=O)N[C@@H](CCCCN)C(N)=O [Compound 30] | IC50 (PRMT5 [2]): 45.6 µM; IC50 (PRMT1): 46.1 µM |
